Data published in patent publication US9266868B2, “Crystalline form of rivaroxaban dihydrate” (SANDOZ AG, priority 2010, dated 2016).

Experiments:
[1] = cited from earlier work; for solubility (in words): WO 2007/039132, CHMP assessment report EMEA/H/C/000944
[2] = Polymorphic stability of Rivaroxaban dihydrate on storage (infrared spectroscopy); format: physicochemical; settings: about 25° C., relative humidity of about 76%, 6 weeks
Description: Infrared spectra (IR) were collected on a MKII Golden Gate™ Single Reflection Diamond ATR (attenuated total reflection) cell with a Bruker Tensor 27 FTIR spectrometer with 4 cm-1 resolution at ambient conditions. To collect a spectrum a spatula tip of a sample was applied to the surface of the diamond in powder form. Then the sample was pressed onto the diamond with a sapphire anvil and the spectrum was recorded. A spectrum of the clean diamond was used as background spectrum. A typical precision of the wavenumber values is in the range of about ±2 cm-1. Thus, an infrared peak that appears at 1716 cm-1 can appear between 1714 and 1718 cm-1 on most infrared spectrometers under standard conditions. […]

[3] = Moisture desorption isotherm / exposure to low relative humidity; format: physicochemical; settings: for relative humidity at which the dihydrate converts to an anhydrate form: 25° C., FIG. 7
Description: The moisture desorption isotherm were recorded with a SPS-11 moisture sorption analyzer (MD Messtechnik, Ulm, and D). The measurement cycle was performed by a decrease relative humidity (RH) in 10% steps. The equilibrium condition for each step was set to a mass constancy of ±0.001% over 50 min. The temperature was 25° C.±01° C.

O=C(NC[C@H]1CN(c2ccc(N3CCOCC3=O)cc2)C(=O)O1)c1ccc(Cl)s1 [amorphous form]
solubility (in words) [1]: higher solubility in comparison to modification I

O=C(NC[C@H]1CN(c2ccc(N3CCOCC3=O)cc2)C(=O)O1)c1ccc(Cl)s1 [Modification II]
higher solubility compared to modification I ([1]; described in WO 2007/039132): 4 fold

O=C(NC[C@H]1CN(c2ccc(N3CCOCC3=O)cc2)C(=O)O1)c1ccc(Cl)s1.O=CO [formic acid solvate of Rivaroxaban, Rivaroxaban.Formic Acid Solvate]
stability on storage at low relative humidity (less than about 20% relative humidity at 25° C.): stable | behaviour on storage at higher relative humidity (relative humidity of more than 20%, e.g. 30%, 60% or 97%): formic acid is lost and the dihydrate of Rivaroxaban is formed | behaviour on suspending in aqueous medium (suspended in aqueous medium): pure dihydrate of Rivaroxaban is formed

O=C(NC[C@H]1CN(c2ccc(N3CCOCC3=O)cc2)C(=O)O1)c1ccc(Cl)s1 [Form I of Rivaroxabin, 5-Chloro-N-({(5S)-2-oxo-3-[4-(3-oxomorpholin-4-yl]phenyl)-1,3-oxazolidin-5-yl}methyl)thiophene-2-carboxamide]
solubility (in words) [1]: relatively low solubility

O=C(NC[C@H]1CN(c2ccc(N3CCOCC3=O)cc2)C(=O)O1)c1ccc(Cl)s1 [crystalline dihydrate of Rivaroxaban, Rivaroxaban Dihydrate]
polymorphic stability on storage ([2]; listed as Rivaroxaban Dihydrate): polymorphic stable | polymorphic stability on storage ([2]; listed as crystalline dihydrate): does not convert to other polymorphic forms | relative humidity at which the dihydrate converts to an anhydrate form [3]: less than 20% | relative humidity at which the dihydrate converts to an anhydrate form ([3]; listed as dihydrate of Rivaroxaban): about 25% | exposure time to low relative humidity sufficient for transformation into anhydrate form ([3]; less than 20% relative humidity): about one
